Source: US8278480B2, “Salts, aqueous liquid compositions containing salts of S-(+)-abscisic acid and methods of their preparation” (Valent BioSciences Corporation, priority 2008, dated 2012)
Several values for one entry are separate records, joined by “and”; a condition that tells them apart may be missing. Equal values may be shown once.

Columns and labels:
Type in all cases: in vivo, Tomato (variety: Rutgers)
[1] = tested on: tomato leaf transpiration; experiment: Tomato leaf transpiration inhibition after foliar spray (LI-1600 porometer); conditions: for Transpiration rate (% of control), 1 day after treatment: day 1; for Transpiration rate (% of control), 2 days after treatment: day 2; for Transpiration rate (% of control), 3 days after treatment: day 3; for Transpiration rate (% of control), 4 days after treatment: day 4; for Transpiration rate (% of control), 7 days after treatment: day 7; for ABA dose to achieve 50% inhibition of transpiration: from linear regression of 3-day average transpiration rate on log dose
Description: (§1) Preparation of plant specimens for use in the treatment studies of the EXAMPLES that follow was carried out as follows. Tomato (variety: Rutgers) seeds were sown in an 18-cell flat filled with Promix PGX (available from Premier Horticulture Inc., Quakertown Pa.) and grown for 3 weeks to allow for germination and initial growth. Plants were then transplanted into pots (18 cm in diameter and 18 cm in height), filled with Promix BX (available from Premier Horticulture Inc., Quakertown Pa.), and grown for one or two more weeks before treatment, depending on temperature and available light. Plants received daily irrigation and weekly fertilizer (1 g/L all purpose fertilizer 20-20-20, available from The Scotts Company, Marysville, Ohio).
(§2) All treatment solutions were made up with distilled water. The (S)-(+)-abscisic acid (95% active ingredient) is available from Lomon BioTechnology Co., Ltd. (Shichuan, China). The prior art aqueous solution composition of the ammonium salt of (S)-(+)-abscisic acid as prepared in Example 11 above was used as a positive treatment control for most of the studies.
(§3) All experiments were conducted using a randomized complete block experimental design. Solutions of (S)-(+)-abscisic acid and blank treatments (plain water) were applied by spray to the aerial parts of the tomato plants at the rate of 24 mL per 6 plants. Plants were then placed in a transparent chamber with humidity controlled within the range of 40 to 60% relative humidity. Leaf transpiration rates were measured at 1, 2, 3, 4 and 7 days after treatment. Measurements were conducted using a LI-1600 Steady State Porometer (LI-Cor, Lincoln, Nebr.). Each day the transpiration rate of the plants of each treatment group was normalized to a percentage of the transpiration rate of untreated plants (plants sprayed with water only) in order to control for day-to-day variability in plant status caused by changes of environmental conditions such as light intensity and temperature. Data for each plant was also averaged over a 3-day period to balance the short term and long term effect of (S)-(+)-abscisic acid on tomato leaf transpiration as well as to reduce experimental variability.
The regression equation of each (S)-(+)-abscisic acid salt as well as abscisic acid concentrations for 50% inhibition of transpiration were calculated. The relative potency of two ABA salts is the reciprocal of the ratio of (S)-(+)-abscisic acid concentration required for 50% transpiration inhibition for each composition.

tomato plant height = experiment: Tomato plant height 7 days after treatment (growth suppression); conditions: 250 ppm (1 mg) (S)-(+)-abscisic acid, foliar spray; additives as in label
Description: as §1, §2
as §3, with “variability. It is important to note that no phytotoxicity was observed on any of the plants treated with the compositions of the present invention.” for “variability.”
In this experiment, the fresh weights of the aerial parts of the tomato plants and their heights were also measured at the end of the experiment, 7 days after treatments were applied, in order to assess the relative growth suppressing activity of the compositions.

[2] = tested on: tomato shoot fresh weight; experiment: Tomato shoot fresh weight 7 days after treatment (growth suppression); conditions: foliar spray
Description: as §1, §2, §3
In this experiment, the fresh weights of the aerial parts of the tomato plants were also measured at the end of the experiment, 7 days after treatments were applied, in order to assess the relative growth suppressing activity of the compositions.

[3] = 462 ppm ChI, no (S)-(+)-abscisic acid
[4] = (S)-(+)-abscisic acid dose 0.3 mg, foliar spray
[5] = (S)-(+)-abscisic acid dose 1 mg, foliar spray
[6] = (S)-(+)-abscisic acid dose 3 mg, foliar spray
[7] = (S)-(+)-abscisic acid dose 10 mg, foliar spray
[8] = foliar spray, 250 ppm (S)-(+)-abscisic acid (1 mg), additives as in label
[9] = 332 ppm KI, no (S)-(+)-abscisic acid
[10] = reciprocal of ratio of doses for 50% transpiration inhibition

C[N+](C)(C)CCO.[I-] [ChI, choline iodide, reference compound]
Transpiration rate (% of control), 7-Day Average [1, 3]: 100.6 % of control | Transpiration rate (% of control), 1 day after treatment [1, 3]: 96.4 % of control | Transpiration rate (% of control), 2 days after treatment [1, 3]: 104.2 % of control | Transpiration rate (% of control), 3 days after treatment [1, 3]: 104.5 % of control | Transpiration rate (% of control), 4 days after treatment [1, 3]: 98.9 % of control | Transpiration rate (% of control), 7 days after treatment [1, 3]: 98.9 % of control

CC1=CC(=O)CC(C)(C)[C@@]1(O)/C=C/C(C)=C\C(=O)O.CN(C)C(=N)N(C)C [Example 6, Tetramethylguanidinium Salt of (S)-(+)-Abscisic Acid]
Transpiration rate (% of control), Average of 3 days after treatment [1, 4]: 71 % of control | Transpiration rate (% of control), Average of 3 days after treatment [1, 5]: 61 % of control | Transpiration rate (% of control), Average of 3 days after treatment [1, 6]: 42 % of control | Transpiration rate (% of control), Average of 3 days after treatment [1, 7]: 31 % of control | Transpiration rate (% of control), 7-Day Average [1, 8]: 70.8 % of control and 76.2 % of control and 78.7 % of control | Transpiration rate (% of control), 1 day after treatment [1, 8]: 51.0 % of control and 51.9 % of control and 47.8 % of control | Transpiration rate (% of control), 2 days after treatment [1, 8]: 61.3 % of control and 64.3 % of control and 69.0 % of control | Transpiration rate (% of control), 3 days after treatment [1, 8]: 71.2 % of control and 75.6 % of control and 84.5 % of control | Transpiration rate (% of control), 4 days after treatment [1, 8]: 79.9 % of control and 89.9 % of control and 93.2 % of control | Transpiration rate (% of control), 7 days after treatment [1, 8]: 90.3 % of control and 99.1 % of control and 99.0 % of control | ABA dose to achieve 50% inhibition of transpiration [1]: 1.93 mg | Plant height (cm) 7 days after treatment (tomato plant height): 30.1 cm

[I-].[K+] [KI, potassium iodide, reference compound]
Transpiration rate (% of control), 4 Day Average ([1]; 332 ppm KI, no (S)-(+)-abscisic acid, 4-day average): 100.7 % of control | Transpiration rate (% of control), 1 day after treatment [1, 9]: 100.2 % of control | Transpiration rate (% of control), 2 days after treatment [1, 9]: 100.5 % of control | Transpiration rate (% of control), 3 days after treatment [1, 9]: 99.6 % of control | Transpiration rate (% of control), 4 days after treatment [1, 9]: 102.6 % of control

CC1=CC(=O)CC(C)(C)[C@@]1(O)/C=C/C(C)=C\C(=O)[O-].[K+] [Example 12, Potassium Salt of (S)-(+)-Abscisic Acid, reference compound]
Transpiration rate (% of control), Average of 3 days after treatment [1, 4]: 76 % of control | Transpiration rate (% of control), Average of 3 days after treatment [1, 5]: 66 % of control | Transpiration rate (% of control), Average of 3 days after treatment [1, 6]: 55 % of control | Transpiration rate (% of control), Average of 3 days after treatment [1, 7]: 44 % of control | Transpiration rate (% of control), 7-Day Average [1, 8]: 77.0 % of control | Transpiration rate (% of control), 1 day after treatment [1, 8]: 55.0 % of control | Transpiration rate (% of control), 2 days after treatment [1, 8]: 64.9 % of control | Transpiration rate (% of control), 3 days after treatment [1, 8]: 76.9 % of control | Transpiration rate (% of control), 4 days after treatment [1, 8]: 90.9 % of control | Transpiration rate (% of control), 7 days after treatment [1, 8]: 97.3 % of control | ABA dose to achieve 50% inhibition of transpiration [1]: 5.28 mg | Relative potency compared to the ammonium salt composition of Comparative Example 11 [1, 10]: 0.98 times

CC1=CC(=O)CC(C)(C)[C@@]1(O)/C=C/C(C)=C\C(=O)[O-].C[N+](C)(C)C [Example 3, Tetramethylammonium Salt of (S)-(+)-Abscisic Acid]
Transpiration rate (% of control), Average of 3 days after treatment [1, 4]: 79 % of control | Transpiration rate (% of control), Average of 3 days after treatment [1, 5]: 65 % of control | Transpiration rate (% of control), Average of 3 days after treatment [1, 6]: 52 % of control | Transpiration rate (% of control), Average of 3 days after treatment [1, 7]: 38 % of control | Transpiration rate (% of control), 7-Day Average [1, 8]: 73.7 % of control | Transpiration rate (% of control), 1 day after treatment [1, 8]: 59.1 % of control | Transpiration rate (% of control), 2 days after treatment [1, 8]: 63.6 % of control | Transpiration rate (% of control), 3 days after treatment [1, 8]: 71.9 % of control | Transpiration rate (% of control), 4 days after treatment [1, 8]: 78.6 % of control | Transpiration rate (% of control), 7 days after treatment [1, 8]: 95.4 % of control | ABA dose to achieve 50% inhibition of transpiration [1]: 3.59 mg | Relative potency compared to the trimethylamine salt composition of Comparative Example 13 [1, 10]: 4.6 times

CC1=CC(=O)CC(C)(C)[C@@]1(O)/C=C/C(C)=C\C(=O)O.CCCCN(CCCC)CCCC [Example 14, Tributylamine Salt of (S)-(+)-Abscisic Acid, reference compound]
Transpiration rate (% of control), Average of 3 days after treatment [1, 4]: 82 % of control | Transpiration rate (% of control), Average of 3 days after treatment [1, 5]: 70 % of control | Transpiration rate (% of control), Average of 3 days after treatment [1, 6]: 53 % of control | Transpiration rate (% of control), Average of 3 days after treatment [1, 7]: 40 % of control | Transpiration rate (% of control), 7-Day Average [1, 8]: 79.5 % of control | Transpiration rate (% of control), 1 day after treatment [1, 8]: 59.7 % of control | Transpiration rate (% of control), 2 days after treatment [1, 8]: 71.3 % of control | Transpiration rate (% of control), 3 days after treatment [1, 8]: 78.8 % of control | Transpiration rate (% of control), 4 days after treatment [1, 8]: 87.4 % of control | Transpiration rate (% of control), 7 days after treatment [1, 8]: 100.3 % of control | ABA dose to achieve 50% inhibition of transpiration [1]: 4.34 mg | Fresh weight (g) 7 days after treatment ([2]; 75 ppm (0.3 mg) (S)-(+)-abscisic acid): 15.7 g | Fresh weight (g) 7 days after treatment ([2]; 250 ppm (1 mg) (S)-(+)-abscisic acid, additives as in label): 15.3 g | Fresh weight (g) 7 days after treatment ([2]; 750 ppm (3 mg) (S)-(+)-abscisic acid): 15.0 g | Fresh weight (g) 7 days after treatment ([2]; 2500 ppm (10 mg) (S)-(+)-abscisic acid): 13.9 g

CC1=CC(=O)CC(C)(C)[C@@]1(O)/C=C/C(C)=C\C(=O)O.CN(C)C [Example 13, Trimethylamine Salt of (S)-(+)-Abscisic Acid, reference compound]
Transpiration rate (% of control), Average of 3 days after treatment [1, 4]: 84 % of control | Transpiration rate (% of control), Average of 3 days after treatment [1, 5]: 74 % of control | Transpiration rate (% of control), Average of 3 days after treatment [1, 6]: 65 % of control | Transpiration rate (% of control), Average of 3 days after treatment [1, 7]: 54 % of control | Transpiration rate (% of control), 7-Day Average [1, 8]: 81.2 % of control | Transpiration rate (% of control), 1 day after treatment [1, 8]: 65.5 % of control | Transpiration rate (% of control), 2 days after treatment [1, 8]: 73.6 % of control | Transpiration rate (% of control), 3 days after treatment [1, 8]: 81.7 % of control | Transpiration rate (% of control), 4 days after treatment [1, 8]: 88.2 % of control | Transpiration rate (% of control), 7 days after treatment [1, 8]: 97.0 % of control | ABA dose to achieve 50% inhibition of transpiration [1]: 16.59 mg
